Read-outs that look alike come from different tables or passages of the source.
Columns and labels:
Assay type in all cases: cell-based
[1] = tested on: HIV-1 integrase mutant virus N155H; experiment: Single cycle infectivity assay in HeLa P4-2 cells, integrase mutant N155H virus; conditions: fold shift in IC50 versus wild type IIIB
Procedure: (§1) An assay for measuring the inhibition of acute HIV-1 infection with HeLa P4-2 cells in a single cycle infectivity assay was conducted using methods described in Joyce et al., J. Biol. Chem. 2002, 277: 45811, Hazuda et al., Science 2000, 287: 646, and Kimpton et al, J. Virol. 1992, 66: 2232. Proviral plasmids encoding viruses containing specific mutations in the integrase gene (N155H, Q148R, Y143R, E92Q, or G140S/Q148H) were generated by site-directed mutagenesis, and viruses were produced by transfecting 293T cells with the appropriate proviral plasmids.

HIV-1 = experiment: Inhibition of acute HIV-1 infection of T-lymphoid cells (spread assay); conditions: 10% FBS, read-out: IC95 (nM) in the presence of 10% FBS
Procedure: Assays for the inhibition of acute HIV-1 infection of T-lymphoid cells were conducted in accordance with Vacca, J. P. et al., Proc. Natl. Acad. Sci. USA 1994, 91: 4096.

HIV-1 wild type IIIB = experiment: Single cycle infectivity assay in HeLa P4-2 cells, wild type virus
Procedure: as §1

[2] = tested on: HIV-1 integrase mutant virus Q148R; experiment: Single cycle infectivity assay in HeLa P4-2 cells, integrase mutant Q148R virus; conditions: fold shift in IC50 versus wild type IIIB
Procedure: as §1

[3] = tested on: HIV-1 integrase mutant virus G140S/Q148H; experiment: Single cycle infectivity assay in HeLa P4-2 cells, integrase mutant G140S/Q148H virus; conditions: fold shift in IC50 versus wild type IIIB
Procedure: as §1

[4] = tested on: HIV-1 integrase mutant virus Y143R; experiment: Single cycle infectivity assay in HeLa P4-2 cells, integrase mutant Y143R virus; conditions: fold shift in IC50 versus wild type IIIB
Procedure: as §1

[5] = Human immunodeficiency virus 1, T-lymphoid
[6] = Human immunodeficiency virus 1, IIIB, HeLaP4-2, wild type IIIB

| Structure (SMILES) | N155H (shift) [1] [fold] | IC95 (HIV-1) [nM] | IC50 (HIV-1 wild type IIIB; wild type IIIB) [µM] | Q148R (shift) [2] [fold] | G140S/Q148H (shift) [3] [fold] | Y143R (shift) [4] [fold] | IC95 (HIV-1; [5]) [nM] | IC50 (HIV-1 wild type IIIB; [6]) [µM] |
| --- | --- | --- | --- | --- | --- | --- | --- | --- |
| CCC12CCC(N(C)C(=O)C(=O)N(C)C)(CO1)c1nc(C(=O)NCc3ccc(F)cc3)c(O)c(=O)n1C2 (single isomer, unassigned) [Example 20B, N-(9-ethyl-4-{[(4-fluorolbenzyl)amino]carbonyl}-5-hydroxy-6-oxo-10-oxa-3,7-diazatricyclo[7.2.2.0^2,7]trideca-2,4-dien-1-yl)-N,N′,N′-trimethylethanediamide] | 7 | 16.7 | 0.017 | 11 | 102 | 1 | – | – |
| CN(C)C(=O)C(=O)N(C)C12CCC(Cn3c1nc(C(=O)NCc1ccc(F)cc1)c(O)c3=O)OC2 (single isomer, unassigned) [Example 23B] | 136 | 23.6 | 0.005 | 253 | 229 | 7 | – | – |
| CCC1C2CCC(NC(=O)C(=O)N(C)C)(CO2)c2nc(C(=O)NCc3ccc(F)cc3)c(O)c(=O)n21 (single isomer, unassigned) [Example 26C, N′-(8-ethyl-4-{[(4-fluorobenzyl)amino]carbonyl}-5-hydroxy-6-oxo-10-oxa-3,7-diazatricyclo[7.2.2.0^2,7]trideca-2,4-dien-1-yl)-N-dimethylethanediamide] | 12 | 18.1 | 0.023 | 9 | 26 | 2 | – | – |
| CN(C)C(=O)C(=O)N(C)C12CCC(Cn3c1nc(C(=O)NCc1ccc(F)cc1)c(O)c3=O)OC2 (single isomer, unassigned) [Example 23A] | 7 | 16.7 | 0.021 | 6 | 84 | 1 | – | – |
| CCC12CCC(N(C)C(=O)C(=O)N(C)C)(CO1)c1nc(C(=O)NCc3ccc(F)cc3)c(O)c(=O)n1C2 (single isomer, unassigned) [Example 20A, N-(9-ethyl-4-{[(4-fluorolbenzyl)amino]carbonyl}-5-hydroxy-6-oxo-10-oxa-3,7-diazatricyclo[7.2.2.0^2,7]trideca-2,4-dien-1-yl)-N,N′,N′-trimethylethanediamide] | 3 | – | 0.008 | 2 | 21 | 1 | 11 | – |
| CN(C)C(=O)C(=O)N(C)C12CCC(CC1)Cn1c2nc(C(=O)NCc2ccc(F)cc2)c(O)c1=O (single isomer, unassigned) [Example 24A] | 4 | – | – | 5 | >111 | 1 | 11.7 | 0.015 |
| CCN(C(=O)C(=O)N(C)C)C12CCC(Cn3c1nc(C(=O)NCc1ccc(F)c(C)c1)c(O)c3=O)OC2 (stereo not drawn) [Example 18A, N-ethyl-N-(4-{[(4-fluoro-3-methylbenzyl)amino]carbonyl}-5-hydroxy-6-oxo-10-oxa-3,7-diazatricyclo[7.2.2.0^2,7]trideca-2,4-dien-1-yl)-N,N-dimethylethanediamide] | 8 | – | – | 7 | >88 | 2 | 9.8 | 0.019 |
| COC12CCC(N(C)C(=O)C(=O)N(C)C)(CC1)c1nc(C(=O)NCc3ccc(F)cc3)c(O)c(=O)n1C2 [Example 15, N-(4-{[(4-Fluorobenzyl)amino]carbonyl}-5-hydroxy-9-methoxy-6-oxo-3,7-diazatricyclo[7.2.2.0^2,7]trideca-2,4-dien-1-yl)-N,N′,N′-trimethylethanediamide] | 2 | – | – | 1 | 9 | 1 | 9.5 | 0.023 |
| CNC(=O)C(=O)N(C)C12CCC(OC1)C(C)n1c2nc(C(=O)NCc2ccc(F)cc2)c(O)c1=O (single isomer, unassigned) [Example 28A, N-(4-{[(4-fluorobenzyl)amino]carbonyl}-5-hydroxy-8-methyl-6-oxo-10-oxa-3,7-diazatricyclo[7.2.2.0^2,7]trideca-2,4-dien-1-yl)-N,N′-dimethylethanediamide] | 3 | – | – | 1 | 4 | 1 | 17.8 | 0.046 |
| Cc1nnc(C(=O)N(C)C23CCC(Cn4c2nc(C(=O)NCc2ccc(F)cc2)c(O)c4=O)C3)o1 (stereo not drawn) [Example 7, N-(4-Fluorobenzyl)-3-hydroxy-10-{methyl[(5-methyl-1,3,4-oxadiazol-2-yl)carbonyl]amino}-4-oxo-4,6,7,8,9,10-hexahydro-7,10-methanopyrimido[1,2-a]azepine-2-carboxamide] | 3 | – | – | 4 | 44 | 2 | 9.6 | 0.08 |
| CC1C2CCC(NC(=O)C(=O)N(C)C)(CO2)c2nc(C(=O)NCc3ccc(F)cc3)c(O)c(=O)n21 (single isomer, unassigned) [Example 29A, N′-(4-{[(4-Fluorobenzyl)amino]carbonyl}-5-hydroxy-8-methyl-6-oxo-10-oxa-3,7-diazatricyclo[7.2.2.0^2,7]trideca-2,4-dien-1-yl)-N-dimethylethanediamide] | 1 | 17.9 | 0.02 | 1 | 4 | 1 | – | – |
| CN(C)C(=O)C(=O)N(C)C12CCC(O)(CC1)Cn1c2nc(C(=O)NCc2ccc(F)cc2)c(O)c1=O [Example 17, N-(4-{[(4-Fluorobenzyl)amino]carbonyl}-5,9-dihydroxy-6-oxo-3,7-diazatricyclo[7.2.2.0^2,7]trideca-2,4-dien-1-yl)-N,N′,N′-trimethylethanediamide] | 3 | – | – | 3 | 38 | 1 | 20.5 | 0.046 |
| COC12CCC(N(C)C(=O)C(=O)N(C)C)(CC1)c1nc(C(=O)NCc3ccc(F)c(C)c3)c(O)c(=O)n1C2 [Example 14, N-(4-{[(4-Fluoro-3-methylbenzyl)amino]carbonyl}-5-hydroxy-9-methoxy-6-oxo-3,7-diazatricyclo[7.2.2.0^2,7]trideca-2,4-dien-1-yl)-N,N′,N′-trimethylethanediamide] | 2 | – | – | 1 | 4 | 2 | 13.1 | 0.012 |
| CN(C)C(=O)C(=O)N(C)C12CCC(C)(Cn3c1nc(C(=O)NCc1ccc(F)cc1)c(O)c3=O)OC2 (single isomer, unassigned) [Example 21A] | 3 | – | – | 3 | 73 | 1 | 20 | 0.02 |
| CCC1C2CCC(N(C)C(=O)C(=O)N(C)C)(CO2)c2nc(C(=O)NCc3ccc(F)cc3)c(O)c(=O)n21 (single isomer, unassigned) [Example 25D, N-(8-ethyl-4-{[(4-fluorobenzyl)amino]carbonyl}-5-hydroxy-6-oxo-10-oxa-3,7-diazatricyclo[7.2.2.0^2,7]trideca-2,4-dien-1-yl)-N,N′,N′-trimethylethanediamide] | 98 | 7.2 | 0.015 | 38 | >111 | 3 | – | – |
| CC1C2CCC(N(C)C(=O)C(=O)N(C)C)(CO2)c2nc(C(=O)NCc3ccc(F)cc3)c(O)c(=O)n21 (single isomer, unassigned) [Example 27C, N-(4-{[(4-fluorobenzyl)amino]carbonyl}-5-hydroxy-8-methyl-6-oxo-10-oxa-3,7-diazatricyclo[7.2.2.0^2,7]trideca-2,4-dien-1-yl)-N,N′,N′-trimethylethanediamide] | 11 | 7.7 | 0.015 | 12 | >111 | 3 | – | – |
| CCC1C2CCC(N(C)C(=O)C(=O)N(C)C)(CO2)c2nc(C(=O)NCc3ccc(F)cc3)c(O)c(=O)n21 (single isomer, unassigned) [Example 25C, N-(8-ethyl-4-{[(4-fluorobenzyl)amino]carbonyl}-5-hydroxy-6-oxo-10-oxa-3,7-diazatricyclo[7.2.2.0^2,7]trideca-2,4-dien-1-yl)-N,N′,N′-trimethylethanediamide] | 6 | 10.8 | 0.006 | 4 | 88 | 3 | – | – |
